#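 Step 1: Grow cells in 96-well plates. Step 2: Expose to compound for 48 hours at 5 concentrations. Step 3: Interpolate endpoints linearly; if unreached, use highest concentration. GI50 is the concentration that inhibits growth by half. The concentration for full growth arrest is given as TGI.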
# What was measured:
# Experiment in all cases: NCI tumour cell line growth inhibition, 48 h
# [1] = tested on: CAKI-1 renal
# [2] = tested on: DU-145 prostate
# [3] = tested on: HCT-15 colon
# [4] = tested on: HL-60(TB) leukemia
# [5] = tested on: HOP-92 NSCLC
# [6] = tested on: IGROV1 ovarian
# [7] = tested on: NCI/ADR-RES ovarian
# [8] = tested on: SF-268 CNS
# [9] = tested on: SK-MEL-2 melanoma
# [10] = tested on: UO-31 renal
# [11] = tested on: 786-0 renal
# [12] = tested on: A498 renal
# [13] = tested on: A549 NSCLC
# [14] = tested on: ACHN renal
# [15] = tested on: BT-549 breast
# [16] = tested on: COLO 205 colon
# [17] = tested on: EKVX NSCLC
# [18] = tested on: HCC-2998 colon
# [19] = tested on: HCT-116 colon
# [20] = tested on: HOP-62 NSCLC
# [21] = tested on: HS 578T breast
# [22] = tested on: HT29 colon
# [23] = tested on: K-562 leukemia
# [24] = tested on: KM12 colon
# [25] = tested on: LOX IMVI melanoma
# [26] = tested on: M14 melanoma
# [27] = tested on: MALME-3M melanoma
# [28] = tested on: MCF7 breast
# [29] = tested on: MDA-MB-231 breast
# [30] = tested on: MDA-MB-435
# [31] = tested on: MOLT-4 leukemia
# [32] = tested on: NCI-H460 lung
# [33] = tested on: NCI-H522 lung
# [34] = tested on: OVCAR-3 ovarian
# [35] = tested on: OVCAR-4 ovarian
# [36] = tested on: OVCAR-5 ovarian
# [37] = tested on: OVCAR-8 ovarian
# [38] = tested on: PC-3 prostate
# [39] = tested on: RPMI-8226 leukemia
# [40] = tested on: RXF 393 renal
# [41] = tested on: SF-295 CNS
# [42] = tested on: SF-539 CNS
# [43] = tested on: SK-MEL-28 melanoma
# [44] = tested on: SK-MEL-5 melanoma
# [45] = tested on: SK-OV-3 ovarian
# [46] = tested on: SN12C renal
# [47] = tested on: SNB-19 CNS
# [48] = tested on: SNB-75 CNS
# [49] = tested on: SW-620 colon
# [50] = tested on: T-47D breast
# [51] = tested on: TK-10 renal
# [52] = tested on: U251 CNS
# [53] = tested on: UACC-62 melanoma
structure (smiles),measurement,setting,value
CCCCCCCCCCC(C[N+](C)(C)C/C=C/c1ccccc1)C(O)c1ccccc1 (stereo not drawn),GI50,[1],12.2 µM
same,TGI,[1],34.1 µM
same,GI50,[2],1.76 µM
same,TGI,[2],3.37 µM
same,GI50,[3],2.29 µM
same,TGI,[3],6.31 µM
same,GI50,[4],1.1 µM
same,TGI,[4],2.63 µM
same,GI50,[5],0.435 µM
same,TGI,[5],2.08 µM
same,GI50,[6],0.999 µM
same,TGI,[6],2.54 µM
same,GI50,[7],7.5 µM
same,TGI,[7],34.6 µM
same,GI50,[8],1.47 µM
same,TGI,[8],3.2 µM
same,GI50,[9],1.75 µM
same,TGI,[9],3.24 µM
same,GI50,[10],2.09 µM
same,TGI,[10],4.51 µM
Fc1ccc(Oc2nccc(-c3c(-c4ccc(F)cc4)ncn3C3CCNCC3)n2)cc1,GI50,[11],> 25 µM
same,TGI,[11],> 25 µM
same,GI50,[12],> 25 µM
same,TGI,[12],> 25 µM
same,GI50,[13],> 25 µM
same,TGI,[13],> 25 µM
same,GI50,[14],> 25 µM
same,TGI,[14],> 25 µM
same,GI50,[15],> 25 µM
same,TGI,[15],> 25 µM
same,GI50,[1],20.5 µM
same,TGI,[1],> 25 µM
same,GI50,[16],> 25 µM
same,TGI,[16],> 25 µM
same,GI50,[2],> 25 µM
same,TGI,[2],> 25 µM
same,GI50,[17],> 25 µM
same,TGI,[17],> 25 µM
same,GI50,[18],> 25 µM
same,TGI,[18],> 25 µM
same,GI50,[19],> 25 µM
same,TGI,[19],> 25 µM
same,GI50,[3],> 25 µM
same,TGI,[3],> 25 µM
same,GI50,[4],> 25 µM
same,TGI,[4],> 25 µM
same,GI50,[20],> 25 µM
same,TGI,[20],> 25 µM
same,GI50,[21],> 24 µM
same,TGI,[21],> 25 µM
same,GI50,[22],14.7 µM
same,TGI,[22],> 25 µM
same,GI50,[6],19.2 µM
same,TGI,[6],> 25 µM
same,GI50,[23],> 25 µM
same,TGI,[23],> 25 µM
same,GI50,[24],> 25 µM
same,TGI,[24],> 25 µM
same,GI50,[25],> 25 µM
same,TGI,[25],> 25 µM
same,GI50,[26],> 25 µM
same,TGI,[26],> 25 µM
same,GI50,[27],> 25 µM
same,TGI,[27],> 25 µM
same,GI50,[28],> 25 µM
same,TGI,[28],> 25 µM
same,TGI,[29],> 9.34 µM
same,GI50,[30],> 25 µM
same,TGI,[30],> 25 µM
same,GI50,[31],> 25 µM
same,TGI,[31],> 25 µM
same,GI50,[32],> 25 µM
same,TGI,[32],> 25 µM
same,GI50,[33],> 25 µM
same,TGI,[33],> 25 µM
same,GI50,[7],> 25 µM
same,TGI,[7],> 25 µM
same,GI50,[34],> 25 µM
same,TGI,[34],> 25 µM
same,GI50,[35],> 25 µM
same,TGI,[35],> 25 µM
same,GI50,[36],> 25 µM
same,TGI,[36],> 25 µM
same,GI50,[37],> 25 µM
same,TGI,[37],> 25 µM
same,GI50,[38],> 25 µM
same,TGI,[38],> 25 µM
same,GI50,[39],> 25 µM
same,TGI,[39],> 25 µM
same,GI50,[40],> 25 µM
same,TGI,[40],> 25 µM
same,GI50,[8],> 25 µM
same,TGI,[8],> 25 µM
same,GI50,[41],> 25 µM
same,TGI,[41],> 25 µM
same,GI50,[42],> 25 µM
same,TGI,[42],> 25 µM
same,GI50,[9],> 25 µM
same,TGI,[9],> 25 µM
same,GI50,[43],> 25 µM
same,TGI,[43],> 25 µM
same,GI50,[44],> 25 µM
same,TGI,[44],> 25 µM
same,GI50,[45],> 23.9 µM
same,TGI,[45],> 25 µM
same,GI50,[46],> 19.6 µM
same,TGI,[46],> 25 µM
same,GI50,[47],> 25 µM
same,TGI,[47],> 25 µM
same,GI50,[48],> 25 µM
same,TGI,[48],> 25 µM
same,GI50,[49],> 25 µM
same,TGI,[49],> 25 µM
same,GI50,[50],> 18 µM
same,TGI,[50],> 25 µM
same,GI50,[51],> 19.9 µM
same,TGI,[51],> 25 µM
same,GI50,[52],> 25 µM
same,TGI,[52],> 25 µM
same,GI50,[53],> 20.8 µM
same,TGI,[53],> 25 µM
same,GI50,[10],10.9 µM
same,TGI,[10],> 25 µM
